This note sets out measurements from publication PMC8225628, “Bispecific repurposed medicines targeting the viral and immunological arms of COVID-19” (Scientific Reports, 2021).

The target in data set [1] is SARS-CoV-2 PL^pro (Severe acute respiratory syndrome coronavirus 2, UniProt P0DTD1). Description: biochemical. The note with it: for inhibition at 10 µM: read-out: PL^pro % inhibition at 10 µM.
In data set [2] the target is SARS-CoV-2 M^pro (Severe acute respiratory syndrome coronavirus 2, UniProt P0DTD1). The data set can be described thus: biochemical. The settings on record: for inhibition at 10 µM: read-out: M^pro % inhibition at 10 µM.
Data set [3] deals with M^pro (Severe acute respiratory syndrome coronavirus 2, UniProt P0DTD1). Description: M^pro SPR assay. Format: binding.
Source text: Cytiva Biacore S200 and T200 machines were used for all SPR experiments. […] Scrubber 2 (Biologic software) was used to process and analyse SPR data. Kinetics were fitted using a 1:1 binding model with local Rmax for each concentration where required. Data for the inhibitors were referenced to those for a blank surface and blank injections to normalize for non-specific binding and drift. A DMSO calibration was run to remove excluded volume effect of binding responses between reference and target surface.
The test system of data set [4] is HUH7 cells. The settings on record: human, 4 days.
Data set [5] relates to SARS-CoV-2. Description: Antiviral assay, inhibition of SARS-CoV-2 cytopathic effect in HUH7_mCherry cells. The note with it: HUH7 cells, at 10 µM, dose refreshed daily. Background: Protection from cytopathic effect is a common read-out in antiviral testing.
Procedure: To measure inhibition of the SARS-CoV-2 cytopathic effect, 96-well plates (Corning 3300) were plated with HUH7_mCherry cells at 6000 cells/well in 100 µl. The day after (Day 0), compound was added in a dilution series for concentration response studies. After two hours, addition of virus dilution (final MOI 0.004) was performed and plates were left for incubation at 37 °C, 5% CO2 for four days.
At day four post-infection, mCherry signal was captured using wide field fluorescence imaging by exciting at 560_25 nm and emitting with the BGRFRN filter set. A 5 X objective sufficed to capture 65–70% of an entire well on a 96well plate (4 pictures in total). The optimal exposure time was determined based on fluorescence intensity and was set on 0.09 s. A 2 × 2 binning was used and autofocus plane count was reduced to increase image acquisition speed. An image analysis protocol was developed in-house by using the SpotDetector bioapplication (Cellomics, Thermofisher). After background reduction on the raw image files, a fixed fluorescent intensity threshold was determined for the identification of mCherry cells. Afterwards, the number of fluorescent cells (‘object count’) was calculated per well and compared to the positive (cell control) and negative (virus) control.
[6] abbreviates: ReFRAME hits, >5e-6 = not potent enough to determine an IC50, read-out: M^pro IC50.
Setting [7] is: ReFRAME hits, >5e-6 = not potent enough to determine an IC50, read-out: PL^pro IC50.

Read-outs that look alike come from different tables or passages of the source.

For `Cc1cc(O)c2c(=O)c3c(O)cc(O)c4c5c(O)cc(O)c6c(=O)c7c(O)cc(C)c8c1c2c(c34)c(c78)c65` [hypericin], the inhibition (usually the drop in the measured response relative to a control, in per cent) at 10 µM in data set [1] (ReFRAME hits, 10 µM) amounted to 12%. In addition, the concentration for half-maximal inhibition (IC50) (usually the concentration needed to halve the response being measured) in data set [1] (read-out: PL^pro IC50) was above 5 µM.
Consider `CN1CCCN=C1/C=C/c1cccc(O)c1.O=C(O)c1cc2ccccc2c(Cc2c(O)c(C(=O)O)cc3ccccc23)c1O` [oxantel (pamoate), reference compound], for which the “PL^pro % inhibition at 10 µM” value in data set [1] (ReFRAME hits, 10 µM) was 11%.
For `CC(=O)[O][Hg][c]1cc(C(C)(C)CC(C)(C)C)ccc1O` [acetomeroctol], the “PL^pro % inhibition at 10 µM” value in data set [1] came to 7%. Moreover, in data set [1] (read-out: PL^pro IC50), the half-maximal inhibitory concentration (IC50) was above 5 µM.
On to `COc1ccc(-c2ccc(OCc3cc(C(=O)[N-]S(=O)(=O)c4ccccc4C)oc3C)cc2)nc1.[Na+]` [BGC-20-1531], for which the “M^pro % inhibition at 10 µM” value in data set [2] (ReFRAME hits) was determined as 58%. Further, the half-maximal inhibitory concentration (IC50) in data set [2] (setting [6]) and in data set [1] (setting [7]) was above 5 µM each time. In addition, the “PL^pro % inhibition at 10 µM” value in data set [1] (ReFRAME hits, 10 µM) was determined as 24%.
Take `Cl.Cl.Cl.Cl.N=C(N)NCCCCC(=O)Nc1cc(C(F)(F)F)cc(NC(=O)c2cc(C(=O)Nc3cc(C(F)(F)F)cc(NC(=O)CCCCNC(=N)N)c3O[C@@H]3CCNC3)ncn2)c1O[C@@H]1CCNC1` [PMX-30063]: in data set [2] (ReFRAME hits), the “M^pro % inhibition at 10 µM” value is 11%. In addition, the IC50 in data set [2] (setting [6]) is above 5 µM; in data set [1] (setting [7]), 2 µM. Besides, in data set [1] (ReFRAME hits, 10 µM), the “PL^pro % inhibition at 10 µM” value worked out at 30%.
Take `CCOC(=O)C[C@H](NC(=O)[C@H](C)NC(=O)[C@@H](NC(=O)OCc1ccccc1)C(C)C)C(=O)COC(=O)c1c(Cl)cccc1Cl` [Compound 4, Ethyl (5S,8S,11S)-11-(2-((2,6-dichlorobenzoyl)oxy)acetyl)-5-isopropyl-8-methyl-3,6,9-trioxo-1-phenyl-2-oxa-4,7,10-triazatridecan-13-oate, reference compound]: the “Binding to M^pro in SPR (in words)” value in data set [3] was “confirmed to bind”; in data set [3] (in the presence of slow off-rate inhibitor N3), “no binding observed”. The “Concentration up to which non-cytotoxic” value in data set [4] is listed as at most 10 µM. Also, the IC50 was 0.03 µM in data set [2] (30 nM is the biochemical limit of the assay, read-out: IC50 against M^pro) and above 5 µM in data set [1] (read-out: PL^pro IC50). Besides, the inhibition at 10 µM came out at 95% in data set [2] (ReFRAME hits) and 19% in data set [1] (ReFRAME hits, 10 µM). In data set [5], the Antiviral effect is on record as 50%.
For the compound `CC(C)(C)NC(=O)N[C@H](C(=O)N1C[C@H]2[C@@H]([C@H]1C(=O)NC(CC1CCC1)C(=O)C(N)=O)C2(C)C)C(C)(C)C` (stereo partly shown) [Boceprevir, reference compound], the inhibition at 10 µM in data set [2] (ReFRAME hits) was 62%; in data set [1] (ReFRAME hits, 10 µM) it was -2%.
`CCC[C@@H](NC(=O)N1C(=O)C(CC)(CC)[C@@H]1Oc1ccc(CC(=O)O)cc1)c1ccc(C)cc1` [L 680833]: the “M^pro % inhibition at 10 µM” value in data set [2] (ReFRAME hits) turned out to be 36%. The concentration for half-maximal inhibition (IC50) in data set [2] (setting [6]) and in data set [1] (setting [7]) was above 5 µM in each case. Further, in data set [1] (ReFRAME hits, 10 µM), the “PL^pro % inhibition at 10 µM” value came out at 11%.
As for `O=C(O)c1cccc(C[C@@H]2COc3ccc(OCc4nc5cc(F)ccc5s4)cc3[C@@H]2O)c1` [(+)-CP-85958], in data set [2] (ReFRAME hits), the “M^pro % inhibition at 10 µM” value stood at 70%. For the same compound, the half-inhibitory concentration (IC50) is 2 µM in data set [2] (setting [6]) and above 5 µM in data set [1] (setting [7]). Moreover, the “PL^pro % inhibition at 10 µM” value in data set [1] (ReFRAME hits, 10 µM) was found to be 17%.
For `CO[C@H]1O[C@H](COS(=O)(=O)[O-])[C@@H](O[C@@H]2O[C@@H](C(=O)[O-])[C@@H](O[C@H]3O[C@H](COS(=O)(=O)[O-])[C@@H](O[C@@H]4O[C@H](C(=O)[O-])[C@@H](O[C@H]5O[C@H](COS(=O)(=O)[O-])[C@@H](O)[C@H](O)[C@H]5NS(=O)(=O)[O-])[C@H](O)[C@H]4O)[C@H](OS(=O)(=O)[O-])[C@H]3NS(=O)(=O)[O-])[C@H](O)[C@H]2OS(=O)(=O)[O-])[C@H](O)[C@H]1NS(=O)(=O)[O-].[Na+].[Na+].[Na+].[Na+].[Na+].[Na+].[Na+].[Na+].[Na+].[Na+]` [fondaparinux (sodium), reference compound], in that order: 80%, 2 µM, above 5 µM and 23%.
On to `O=C(NC1CC1)C(=O)C(Cc1ccccc1)NC(=O)C1CCC(=O)N1Cc1ccccc1` (stereo not shown) [Compound 2, ABT-957, reference compound], for which the IC50 is above 5 µM in data set [2] (setting [6]), above 100 µM in data set [2] (read-out: IC50 against M^pro) and above 5 µM in data set [1] (read-out: PL^pro IC50). Also, the inhibition at 10 µM stood at 73% in data set [2] (ReFRAME hits) and 17% in data set [1] (ReFRAME hits, 10 µM).
[(-)-epicatechin]: in data set [1] (ReFRAME hits, 10 µM), the “PL^pro % inhibition at 10 µM” value is listed as 16%. Besides, the concentration for half-maximal inhibition (IC50) in data set [1] (setting [7]) was above 5 µM.
For the compound SENNOSIDES [reference compound], the “M^pro % inhibition at 10 µM” value in data set [2] (ReFRAME hits) is listed as 92%. For the same compound, the IC50 in data set [2] (setting [6]) is 0.7 µM; in data set [1] (setting [7]) it was above 5 µM. Moreover, in data set [1] (ReFRAME hits, 10 µM), the “PL^pro % inhibition at 10 µM” value is recorded as 72%.
Turning to `CN1CCCN=C1/C=C/c1cccc(O)c1` [oxantel (pamoate), reference compound], in data set [1] (setting [7]), the concentration for half-maximal inhibition (IC50) was above 5 µM.
As to `CN1CCCN=C1/C=C/c1cccs1` [Pyrantel pamoate, reference compound], the IC50 in data set [1] was above 5 µM.
With `COc1ccc(/C=C/CCCCOc2ccc(C(=O)c3cccc(C(=O)O)c3)cc2CCC(=O)O)cc1` [LY 223982], the “M^pro % inhibition at 10 µM” value in data set [2] (ReFRAME hits) is on record as 43%. Further, the half-maximal inhibitory concentration (IC50) in data set [2] (setting [6]) and in data set [1] (setting [7]) was above 5 µM throughout. Moreover, the “PL^pro % inhibition at 10 µM” value in data set [1] (ReFRAME hits, 10 µM) is given as 22%.
